For this assay, the target named is T1, Angiotensin-converting enzyme (Oryctolagus cuniculus, UniProt P12822).
T1 sequence (P12822 whole entry): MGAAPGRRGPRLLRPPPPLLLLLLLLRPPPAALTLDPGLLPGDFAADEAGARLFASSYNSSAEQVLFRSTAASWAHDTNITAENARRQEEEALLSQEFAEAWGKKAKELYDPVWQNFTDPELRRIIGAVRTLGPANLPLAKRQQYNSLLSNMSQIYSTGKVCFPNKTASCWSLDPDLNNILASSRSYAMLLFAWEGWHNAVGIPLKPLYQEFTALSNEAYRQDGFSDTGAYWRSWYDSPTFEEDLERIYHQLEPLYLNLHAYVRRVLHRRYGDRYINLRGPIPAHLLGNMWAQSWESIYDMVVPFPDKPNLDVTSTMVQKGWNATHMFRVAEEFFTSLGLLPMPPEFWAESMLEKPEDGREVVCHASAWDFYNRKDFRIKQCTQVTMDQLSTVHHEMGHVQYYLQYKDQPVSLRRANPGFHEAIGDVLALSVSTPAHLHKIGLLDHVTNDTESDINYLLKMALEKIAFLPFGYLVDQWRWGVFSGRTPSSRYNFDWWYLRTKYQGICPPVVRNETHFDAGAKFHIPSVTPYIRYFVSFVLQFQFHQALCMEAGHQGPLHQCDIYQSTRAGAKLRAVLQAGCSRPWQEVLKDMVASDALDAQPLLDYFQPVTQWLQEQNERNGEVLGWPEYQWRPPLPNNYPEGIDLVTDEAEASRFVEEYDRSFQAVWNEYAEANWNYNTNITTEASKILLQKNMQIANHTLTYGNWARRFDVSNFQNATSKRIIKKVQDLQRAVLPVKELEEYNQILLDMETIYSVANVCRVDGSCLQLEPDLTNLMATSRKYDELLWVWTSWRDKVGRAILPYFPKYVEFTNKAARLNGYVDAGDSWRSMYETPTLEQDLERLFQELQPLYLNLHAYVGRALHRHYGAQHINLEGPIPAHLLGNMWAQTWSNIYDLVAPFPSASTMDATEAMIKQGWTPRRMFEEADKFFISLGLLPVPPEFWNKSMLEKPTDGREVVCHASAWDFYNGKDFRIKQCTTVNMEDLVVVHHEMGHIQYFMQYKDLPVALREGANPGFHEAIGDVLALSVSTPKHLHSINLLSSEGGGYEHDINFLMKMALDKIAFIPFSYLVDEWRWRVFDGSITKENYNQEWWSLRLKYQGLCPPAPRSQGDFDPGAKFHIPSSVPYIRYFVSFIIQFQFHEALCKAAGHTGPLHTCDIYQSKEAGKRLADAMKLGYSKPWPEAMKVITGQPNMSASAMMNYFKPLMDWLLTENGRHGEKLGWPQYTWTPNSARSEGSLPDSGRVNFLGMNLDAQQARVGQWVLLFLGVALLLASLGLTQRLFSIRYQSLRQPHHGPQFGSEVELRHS
As to the kind of experiment: Inhibitory activity of compound against angiotensin I converting enzyme was determined.

Each structure is given as a SMILES string. pIC50: −log10 of the molar value.

The values that follow come from ChEMBL document CHEMBL1146757, “Silanediol peptidomimetics. Evaluation of four diastereomeric ACE inhibitors” (Bioorg Med Chem Lett, 2004).

For orientation: pIC50 means the IC50 on a negative log10 scale, so that one unit is a factor of ten. A low value points to a high IC50. On to `C[C@H](C[Si](O)(O)[C@H](Cc1ccccc1)NC(=O)c1ccccc1)C(=O)N1CCC[C@H]1C(=O)O`, for which the pIC50 is 8.42.

Consider `C[C@@H](C[Si](O)(O)[C@H](Cc1ccccc1)NC(=O)c1ccccc1)C(=O)N1CCC[C@H]1C(=O)O`, for which the pIC50 is 6.68.

As for `CC(C)CC(NC(=O)c1ccccc1)[Si](O)(O)CC(C)C(=O)N1CCC[C@H]1C(=O)O` (stereo not given in full), the pIC50 was 7.85.

As for `C[C@@H](C[Si](O)(O)[C@@H](Cc1ccccc1)NC(=O)c1ccccc1)C(=O)N1CCC[C@H]1C(=O)O`, the negative logarithm of the IC50 (pIC50) was 7.14.

Consider `C[C@H](C[Si](O)(O)[C@@H](Cc1ccccc1)NC(=O)c1ccccc1)C(=O)N1CCC[C@H]1C(=O)O`, for which the pIC50 is 7.72.
